assay: Human HepG2 cell viability assay in 384 well format; format: toxicity, cell-based; set-up: dose 125 nL, time 70.5 hour; concentration not given beside the values; settings: HepG2 cells, read-out: Inhibition

Compound | cytotoxicity at 70.5 h [%]
CCn1ncc2c1CCCC2NCc1cc(C)ccc1OC (configuration not stated) | -12.5
CN(CC(=O)N1CCCCC1Cn1cccn1)Cc1ccccc1 (configuration not stated) | 13
COc1c(C2CCCN2C(=O)c2c(C)noc2C)c(C)nn1C (configuration not stated) | -8.08
CN(CC(=O)N1CCCC1Cn1cccn1)Cc1ccccc1 (configuration not stated) | -17.4
CCCc1noc(CCC(=O)N2CCCC2c2ccncc2)n1 (configuration not stated) | -5.95
COc1ccccc1COCC(O)CN1CCC(c2ccn[nH]2)CC1 (configuration not stated) | -8.12
c1coc(-c2noc(CN3CCCC3Cn3cncn3)n2)c1 (configuration not stated) | -8.45
CCn1ncc2c1CCCC2NCc1ccc(OC)cc1OC (configuration not stated) | -4.5
Cc1cnc(CN(C)C2CCN(CC(=O)Nc3nccs3)C2)o1 (configuration not stated) | -5.94
CCn1cc(CN2CCCN(C(=O)c3sccc3OC)CC2)cn1 | 3.74
O=C(CN1CCCC(Cn2cncn2)C1)NCCC1=CCCCC1 (configuration not stated) | 7.12
CCn1cc(CN2CCCN(C(=O)c3cccc(C#N)c3)CC2)cn1 | -3.9
COc1cccc(C2CCCN2CCCNS(C)(=O)=O)c1 (configuration not stated) | -12.4
COc1ccc(C2CCCCCN2CCCNS(C)(=O)=O)cc1 (configuration not stated) | -6.03
CCCc1nc(CN2CCCC2c2cnn(C)c2)cs1 (configuration not stated) | 13
Cc1cnn(CCC(=O)N2CCCN(c3nc(C)cs3)CC2)c1 | -3.54
Cn1cc(CN2CCCN(C(=O)c3sccc3C#N)CC2)cn1 | -2.13
O=C(CS(=O)(=O)Cc1cc(Cl)c2c(c1)OCCCO2)NCC1CC1 | -3.53
CN(C)c1ncccc1CNS(=O)(=O)c1ccc(C(N)=O)cc1 | -7.08
CNC(=O)CCS(=O)(=O)Cc1cc(Cl)c2c(c1)OCCCO2 | -3.42
CN(C)c1ncccc1CNS(=O)(=O)c1ccc(F)c(F)c1 | 1.87
CN(Cc1ccsc1)C(=O)Nc1ccc(S(C)(=O)=O)cc1 | -1.57
CC(C)C(C)(C#N)NC(=O)CN1CCC(c2ccnn2CCO)CC1 (configuration not stated) | -3.64
Cn1nccc1C1CCN(CC(=O)NCC2CC2)CC1 | -8.55
CCOc1ccnc(N2CCN(C(=O)c3cnc[nH]3)CC2)n1 | -0.507
CCOc1ccnc(N2CCN(C(=O)c3cc[nH]n3)CC2)n1 | -4.46

Compound | cytotoxicity at 70.5 h [%]
Cn1cc(C2CCCN2Cc2csc(-c3ccccc3)n2)cn1 (configuration not stated) | -7.14
c1cnn(-c2ccc(CN3CCCC(Cn4cncn4)C3)cc2)c1 (configuration not stated) | -1.71
COc1ccc2cc(C(=O)N3CCCC(n4ccnc4C)C3)[nH]c2c1 (configuration not stated) | 0.0549
Cc1nccn1C1CCCN(C(=O)c2cc3c(F)cccc3[nH]2)C1 (configuration not stated) | -1.56
CN(Cc1ccccc1)C(=O)CN1CCOC(Cn2cncn2)C1 (configuration not stated) | -6.53
CCCNC(=O)C1CCCN(Cc2csc(C(C)(C)C)n2)C1 (configuration not stated) | 17.8
COCCCN1CCCC1c1noc(C2CC2)n1 (configuration not stated) | 23.8
c1ccc(Cc2nnc(CN3CCOC(Cn4cccn4)C3)o2)cc1 (configuration not stated) | 0.701
CCn1cc(NC(=O)NCC(C)N(C)C2CC2)cn1 (configuration not stated) | -4.71
CCc1n[nH]c(C2CN(Cc3nnc(C4CCC4)o3)CCO2)n1 (configuration not stated) | -7.61
CCN1CCN(C2CCN(Cc3nc(C)c(C)o3)CC2)C1=O | -3.68
Clc1snnc1CN1CCCCC1Cn1cccn1 (configuration not stated) | 26.2
c1ncn(CC2CCCCN2Cc2csc(-c3ccsc3)n2)n1 (configuration not stated) | -7.71
COCc1nc(CN(CC(N)=O)C(C)C)cs1 | -3.43
CCc1n[nH]c(C2CN(Cc3nnc(C4CC4)o3)CCO2)n1 (configuration not stated) | -1.31
Cc1nc(C)n(C2CCCN(C(=O)c3sccc3C)C2)n1 (configuration not stated) | -5.74
COc1cc(C)sc1C(=O)N1CCCC(n2nc(C)nc2C)C1 (configuration not stated) | 21.7
COc1cccc(CN2CCN(C(=O)CN3CCOCC3)CC2)n1 | 0.577
CCN1CCOC(CNCc2ccccc2OCc2ccccn2)C1 (configuration not stated) | 1.15
CCc1cnc(CN(C(C)=O)C2CCN(CCc3cnn(C)c3)C2)o1 (configuration not stated) | 2.5
CCc1cnc(CN(C)C2CCN(CCc3cccs3)C2)o1 (configuration not stated) | -4.48
CN(C)C(=O)CS(=O)(=O)Cc1cc(Cl)c2c(c1)OCCCO2 | 6.99
CC(C(N)=O)S(=O)(=O)Cc1cc(Cl)c2c(c1)OCO2 (configuration not stated) | -12.5
CC(C)(C)c1nc(CN(Cc2cccs2)C2CCS(=O)(=O)C2)no1 (configuration not stated) | -4.17
Cn1ncc2c(=O)[nH]c(CN3CCCC3CC3CCCCC3)nc21 (configuration not stated) | -9.61
CC(C)OCc1ccc(CNC(=O)CC(F)(F)F)cc1 | -7.73

Compound | cytotoxicity at 70.5 h [%]
CCCNC(=O)CN1CCC(C(=O)Nc2cnn(CC)c2)CC1 | -10.8
O=C(O)C1CCCCN1C(=O)c1cccc(C(F)(F)F)c1 (configuration not stated) | -9.81
COc1ccc(C2=CCN(C(=O)C3CCN(C)C(=O)C3)CC2)cc1 (configuration not stated) | -8.88
Cc1nc(CN(Cc2ccccc2)C2CCS(=O)(=O)C2)oc1C (configuration not stated) | -0.994
COc1cc(C(C)=O)ccc1OCC(=O)N(C)Cc1cnn(C)c1 | -7.56
CC(C)c1nn(C)c(N(C)C)c1CNCCC(=O)NC1CCCC1 | 26.8
CCn1cc(NC(=O)C2CCN(CC(=O)N3CCOCC3)CC2)cn1 | -19
CCc1nnc2n1CCN(C(=O)C(C)COCc1ccccc1)C2 (configuration not stated) | -9.75
NC(=O)NCC1CCCCN1C(=O)c1cccc(C(F)(F)F)c1 (configuration not stated) | -3.78
O=C(CN1CCCC1Cn1cncn1)NCCc1c(F)cccc1F (configuration not stated) | 27.9
COc1cccc(C(=O)N2CCCCC2CNC(N)=O)c1 (configuration not stated) | 9
CC(C)Oc1ccc(CNC(=O)CC(F)(F)F)cc1F | -18
CCNc1cc2c(nn1)CCN(C(=O)Cc1c(C)noc1C)C2 | 4.3
CCc1nnc2n1CCN(C(=O)COCCc1ccccc1)C2 | -14.7
Cc1nc(C)n(CC2CN(c3ccc(C#N)cn3)CCO2)n1 (configuration not stated) | -4.17
CCOc1cc(C(=O)N2CCCC(c3cc(C(N)=O)[nH]n3)C2)ccn1 (configuration not stated) | -7.42
COCCN1CCC(CNC(=O)C2(c3cc(C)cc(C)c3)CCC2)C1 (configuration not stated) | -5.65
CN(C)S(=O)(=O)c1ccc(CN2CCCC2CO)o1 (configuration not stated) | -17
COCc1nc(C(=O)N2CCCCC2Cn2cccn2)cs1 (configuration not stated) | -7.2
CCc1nc2n(n1)CC(NCc1ncc(-c3ccccc3)o1)CC2 (configuration not stated) | -5.1
Cc1csc(N2CCN(CC(=O)Nc3c(C)n[nH]c3C)CC2C)n1 (configuration not stated) | 7.7
Cc1nn(C)c(C)c1C1CCCN1C(=O)c1ccc(CN(C)C)cc1 (configuration not stated) | 15.1
CN(Cc1ccc2c(c1)OCCO2)C(=O)NCCc1cnn(C)c1 | 6.83
COCCCNC(=O)CN(C)C(=O)c1cc(C)ccc1O | -9.64
CN(CC(=O)N1CCC(C(O)c2ccccc2)CC1)c1cnccn1 (configuration not stated) | -20.6
Cc1ccc(C)c(OCCN2CCC(N3CCNC3=O)CC2)c1 | -3.76

Compound | cytotoxicity at 70.5 h [%]
COCCNC(=O)CN1CCN(c2nc(C)cs2)C(C)C1 (configuration not stated) | -1.03
Cc1nn(C)c(C)c1C1CCCN1C(=O)c1cnc2n[nH]c(C)c2c1 (configuration not stated) | -7.81
Cc1cc(CN(C)C(=O)c2cc3c([nH]c2=O)CCCC3=O)no1 | -14.6
COCCCNC(=O)CN(C)C(=O)c1cc(C)ccc1N(C)C(C)C | -3.7
O=S(=O)(N(Cc1ccccn1)C1CC1)N1CCCC1c1ccco1 (configuration not stated) | -8.96
CC(NC(=O)NCCCn1ccnc1)c1ccc2c(c1)OCCCO2 (configuration not stated) | -10.6
Clc1ccc2cccnc2c1CN1CCCC1Cn1cncn1 (configuration not stated) | -17.7
O=C(c1ccc(Br)o1)N1CCCCC1Cn1cccn1 (configuration not stated) | -10.3
CCc1nc(CN2CCN(C(=O)c3cnccn3)CC2)cs1 | -5.66
Cc1ncsc1C(=O)NCCSCc1cccs1 | -1.32
COc1c(CNCCNC(=O)Cc2ccc(F)cc2)c(C)nn1C | 34.8
COc1ccccc1CC(=O)N1CCC(NCc2cc[nH]c2)CC1 | 4.03
CCC(C)(C)NC(=O)C1CC(=O)N(CC2CC2)C1 (configuration not stated) | 27.7
COc1ccccc1CC(=O)N1CCC(NCc2c[nH]nc2C)CC1 | 2.03
c1ccc(Cc2noc(CNC3CCc4ncnn4C3)n2)cc1 (configuration not stated) | -5.32
COc1c(CNC2CCOc3ccccc32)c(C(C)C)nn1C (configuration not stated) | -7.12
CC(=O)NCC1CCN(C(=O)c2csc(-c3ccc(C)cc3C)n2)CC1 | -10.6
CCc1nnsc1C(=O)NCCn1nc2ccccn2c1=O | 31.6
Cc1noc(C)c1C(=O)NCC(c1ccc(F)cc1)N(C)C (configuration not stated) | -2.05
NC(=O)C1CCN(CCc2ccc(NC(=O)C3CCC3)cc2)CC1 | -1.87
COc1c(CNCCNC(=O)c2ccc(C)cc2)c(C)nn1C | 8.52
O=C(NCCNc1ncccn1)Nc1cc(C(F)(F)F)c[nH]c1=O | -3.37
O=c1[nH]c(CCN2CCCC(Cn3cncn3)C2)nc2ccccc12 (configuration not stated) | -0.545
CCOc1cc(C)nc(N2CCN(C(=O)CC)CC2)n1 | -8.45

— ChEMBL document CHEMBL3507680, “University of Dundee, Gates Library screen for HepG2 cell viability”
